Key:
Type in all cases: cell-based, mouse
[1] = test system: Th17 differentiation of CD4+ CD25− T cells; assay: Th17 differentiation (IL-17+ IFNγ− cells) of T cells activated with TGFβ plus IL-6
Protocol: Low doses of halofuginone (HF) were tested to determine the ability of HF to enhance Treg differentiation, while suppressing Th17 differentiation. Nave. CD4+ T cells (CD4+ CD25−) were isolated from the spleen and peripheral lymph nodes of C57B/6 mice. T cells were then activated using anti-CD3 (0.3 μg/ml) and anti-CD28 (0.5 μg/ml) antibodies either in media alone (row 1, 4), TGFβ alone (3 ng/ml—row 2, 5) or TGFβ (3 ng/ml) plus IL-6 (30 ng/ml) (row 3, 6). […] T cells were cultured for 3 days and CD25 and Foxp3 expression (Treg marker genes) was determine by FACS staining and flow cytometric analyses. Simultaneously, T cells were harvested and re-stimulated for 4 hours using phorbol myristic acetate (PMA; 10 nM), Ionomycin (1 μM) and cytokine secretion was prevented using brefeldin A (20 μg/ml). Following stimulation, the production of IL-17 and IFNγ were determined by intracellular staining and analyzed via flow cytometry.
(§1) The dose-response of HF on CD4+ T cell proliferation, activation (i.e. CD25 upregulation) and differentiation to Th1, Th2 and Th17 lineages were evaluated. Purified murine naïve CD4+ CD25− T cells were activated using anti-CD3 (0.3 μg/ml) and anti-CD28 (0.5 μg/ml) antibodies and varying amounts of HF was added to each T cell culture condition (1.25 nM-40 nM). CD4+ T cell proliferation was monitored by CFSE dilution on day 3-post activation and CD25 expression was evaluated by FACS staining 2 days after activation. For T cell differentiation experiments, naïve T cells were activated as above in the presence of Th1 (IL-12 (20 ng/ml) plus anti-IL-4 (10 μg/ml)), Th2 (IL-4 (50 ng/ml) plus anti-IFNγ (0.5 mg/ml)) or Th17 (TGFβ (3 ng/ml) plus IL-6 (30 ng/ml)) polarizing conditions plus titrating amounts of HF (1.25 nM-40 nM) or MAZ1310 (40 nM). The percentage of Th17 cells, (IL-17^+ IFNγ^−) was evaluated on day 3 following activation, whereas the abundance of Th1 cells (IFNγ^+ IL-4) and Th2 cells (IL-4^+ IFNγ^−) was determined 5 days following activation. All cytokine expression was determined by intracellular staining following PMA+Ionomycin+Brefeldin A re-stimulation and all data was normalized to control (MAZ1310)-treated cells. […] Biol., vol. 80:1-8 (2006).
(§2) Cytokines, antibodies and T cell culture: Purified CD4^+ CD25^− T cells were activated in vitro as previously described (I. M. Djuretic et al., Nat Immunol 8, 145 (2007)) using 0.3 μg/ml hamster anti-mouse CD3 (clone 145-2C11) (ATCC—Manassas, Va.) and 0.5 μg/ml hamster anti-mouse CD28 (BD Pharmingen, San Jose, Calif.). Activated cell cultures were differentiated using the following combinations of cytokines and antibodies: iTreg=recombinant human TGFβ1 (3 ng/ml; R&D systems, Minneapolis, Minn.), Th17βTGFβ1 (3 ng/ml) plus recombinant mouse IL-6 (30 ng/ml, R&D systems). Th1 and Th2 differentiation was performed as previously described. (I. M. Djuretic et al., Nat Immunol 8, 145 (2007)). Human IL-2 supernatant (National Cancer Institute) was used in culture at 0.01 U/ml and was added at 48 hours-post activation when T cells were split into tissue culture wells lacking CD3 and CD28 antibodies, with the exception of Th17 cultures that were maintained in the absence of IL-2. All reagents were added at the time of T cell activation and again at 48-hours post activation unless indicated otherwise. For some experiments, purified CD4^+ CD25^− T cells, CD8^+ T cells or B cells were labeled with 1 μM CFSE (Invitrogen) prior to activation in accordance with manufacturers instructions.
Detection of cytokine production: Cytokines secreted into media supernatant were measured using the mouse Th1/Th2 cytometric bead array (CBA, BD Pharmingen) in accordance with manufacturers instructions.

[2] = test system: TGFβ-induced Smad phosphorylation; assay: TGFβ signaling in T and B cells (Smad phosphorylation, lymphocyte responses to TGFβ); details: HF 2.5-40 nM or 10 nM; SB-431542 10 μM
Protocol: T cells were then activated in the presence or absence of 3 ng/ml. TGFβ. Whole cell extracts were prepared after 1 hour of stimulation and western blot analyses were performed using the indicated antibodies.
Western blotting: Whole cell lysates were generated from T cells activated for the indicated times. For STAT3 and Smad2/3 western blots cells were harvested, washed in PBS and lysed in 50 mM Tris, pH 7.4, 0.1% SDS, 1% Triton-X100, 140 mM NaCl, 1 mM EDTA, 1 mM EGTA supplemented with protease inhibitors tablets (Roche-Germany), 1 mM NaF and 1 mM Na3VO4. For eIF2α and ATF4 western blots, cells were harvested as above and lysed in 50 mM Tris, pH 7.4, 2% SDS, 20% glycerol and 2 mM EDTA supplemented with protease and phosphatase inhibitors as above. All lysates were cleared via centrifugation and 15-30 μg of protein was resolved by SDS-PAGE. Protein was transferred to nitrocellulose membranes, blocked and blotted using specific antibodies. Antibodies used for western blot analysis were anti-phospho-Smad2, anti-STAT3 (pY705), anti-STAT3, anti-eIF2α^pS51, anti-eIF2α, anti-GCN2^pT898, anti-GCN2 (all from cell signaling technology, Danvers, Mass.). Anti-ATF4/CREB2 and anti-β-actin were purchased from Santa Cruz biotechnology (Santa Cruz, Calif.). […]

CD4+ CD25− T cells = assay: CD4+ T cell proliferation, CD25 upregulation, cytokine production and Th1/Th2/iTreg differentiation; details: titrating concentrations of tunicamycin
Protocol: as §1, §2
Detection of cytokine production: Cytokines secreted into media supernatant were measured using the mouse Th1/Th2 cytometric bead array (CBA, BD Pharmingen) in accordance with manufacturers instructions. […]

N[C@H](CO)Cc1c[nH]c2ccccc12 [L-tryptophanol]
effect of L-tryptophanol on IL-17 production, in words ([1]; 0.2 mM in complete medium, TGFβ plus IL-6): impaired IL-17 production

CC(C)(C)OC(=O)N1CCC[C@H](O)[C@H]1CC(=O)Cn1cnc2cc(Br)c(Cl)cc2c1=O [MAZ1310]
activity of the HF derivative used as negative control, in words ([1]; used at equal concentrations as HF): inactive

NC(=O)c1ccc(-c2nc(-c3ccc4c(c3)OCO4)c(-c3ccccn3)[nH]2)cc1 [SB-431542]
effect on TGFβ-induced Smad phosphorylation and other lymphocyte responses to TGFβ, in words [2]: abrogated all responses to TGFβ

tunicamycin
effect of tunicamycin on IL-17 expression in T cells, in words ([1]; titrating concentrations of tunicamycin): little influence on IL-17 expression
effect of tunicamycin on Th1 and Th2 differentiation, in words (CD4+ CD25− T cells): preferentially impaired Th1 and Th2 differentiation
